The nature of data set [1]: Selectivity index, ratio of IC50 for African green monkey Vero cells to IC50 for Trypanosoma cruzi TINF/CH/1956/Tulahuen DTU 6 epimastigotes. In kind it is toxicity. As to conditions: read-out: Ratio IC50.
For data set [2], the system named is Trypanosoma cruzi. Description: Trypanocidal activity against Trypanosoma cruzi TINF/CH/1956/Tulahuen DTU 6 epimastigotes after 48 to 72 hrs by resazurin dye based assay. The data set is classed as functional, organism-based.
For data set [3], the system named is Trypanosoma cruzi. Kind of data set: Trypanocidal activity against Trypanosoma cruzi TINF/CH/1956/Tulahuen DTU 6 amastigotes infected in African green monkey Vero cells after 72 hrs by Giemsa-staining based microscopic assay. The data set is classed as functional, organism-based. As to conditions: TINF/CH/1956/Tulahuen DTU 6, Vero.
Data set [4] has as its system Trypanosoma cruzi. Kind of data set: Trypanocidal activity against Trypanosoma cruzi TINF/CH/1956/Tulahuen DTU 6 trypomastigotes derived from infected Balb/c albino mouse after 24 hrs by resazurin dye based assay. In kind it is functional, organism-based. As to conditions: TINF/CH/1956/Tulahuen DTU 6, 24 h.
The subject of data set [5] is Trypanosoma cruzi. Description: Trypanocidal activity against Trypanosoma cruzi IRHOD/CO/2008/SN3 DTU 1 trypomastigotes derived from infected Balb/c albino mouse after 24 hrs by resazurin dye based assay. In kind it is functional, organism-based. Particulars: IRHOD/CO/2008/SN3 DTU 1, 24 h.
Data set [6] is described as follows: Selectivity index, ratio of IC50 for African green monkey Vero cells to IC50 for Trypanosoma cruzi MHOM/Pe/2011/Arequipa DTU 5 epimastigotes. Particulars: read-out: Ratio IC50. In kind it is toxicity.
Data set [7] can be described thus: Selectivity index, ratio of IC50 for African green monkey Vero cells to IC50 for Trypanosoma cruzi IRHOD/CO/2008/SN3 DTU 1 epimastigotes. The data set is classed as toxicity. As to conditions: read-out: Ratio IC50.
The nature of data set [8]: Selectivity index, ratio of IC50 for African green monkey Vero cells to IC50 for Trypanosoma cruzi IRHOD/CO/2008/SN3 DTU 1 trypomastigotes derived from infected Balb/c albino mouse. The data set is classed as toxicity. As to conditions: read-out: Ratio IC50.
Data set [9] relates to Trypanosoma cruzi. Kind of data set: Trypanocidal activity against Trypanosoma cruzi MHOM/Pe/2011/Arequipa DTU 5 epimastigotes after 48 to 72 hrs by resazurin dye based assay. In kind it is functional, organism-based.
The subject of data set [10] is Trypanosoma cruzi. Description: Trypanocidal activity against Trypanosoma cruzi IRHOD/CO/2008/SN3 DTU 1 amastigotes infected in African green monkey Vero cells after 72 hrs by Giemsa-staining based microscopic assay. The data set is classed as functional, organism-based. Particulars: IRHOD/CO/2008/SN3 DTU 1, Vero.
Data set [11] can be described thus: Selectivity index, ratio of IC50 for African green monkey Vero cells to IC50 for Trypanosoma cruzi TINF/CH/1956/Tulahuen DTU 6 trypomastigotes derived from infected Balb/c albino mouse. The data set is classed as toxicity. As to conditions: read-out: Ratio IC50.
The test system of data set [12] is Trypanosoma cruzi. Description: Trypanocidal activity against Trypanosoma cruzi IRHOD/CO/2008/SN3 DTU 1 epimastigotes after 48 to 72 hrs by resazurin dye based assay. In kind it is functional, organism-based.
The test system of the next data set is Vero. Description: Cytotoxicity against African green monkey Vero cells assessed as reduction in cell viability after 48 to 72 hrs by resazurin dye based assay. As to conditions: Chlorocebus sabaeus.
The nature of data set [13]: Selectivity index, ratio of IC50 for African green monkey Vero cells to IC50 for Trypanosoma cruzi TINF/CH/1956/Tulahuen DTU 6 amastigotes infected in African green monkey Vero cells. The data set is classed as toxicity. As to conditions: read-out: Ratio IC50.
The nature of data set [14]: Selectivity index, ratio of IC50 for African green monkey Vero cells to IC50 for Trypanosoma cruzi IRHOD/CO/2008/SN3 DTU 1 amastigotes infected in African green monkey Vero cells. In kind it is toxicity. Particulars: read-out: Ratio IC50.
Data set [15] deals with Trypanosoma cruzi. Description: Trypanocidal activity against Trypanosoma cruzi MHOM/Pe/2011/Arequipa DTU 5 amastigotes infected in African green monkey Vero cells after 72 hrs by Giemsa-staining based microscopic assay. Particulars: MHOM/Pe/2011/Arequipa DTU 5, Vero. The data set is classed as functional, organism-based.
In data set [16] the test system is Trypanosoma cruzi. Kind of data set: Trypanocidal activity against Trypanosoma cruzi MHOM/Pe/2011/Arequipa DTU 5 trypomastigotes derived from infected Balb/c albino mouse after 24 hrs by resazurin dye based assay. The data set is classed as functional, organism-based. As to conditions: MHOM/Pe/2011/Arequipa DTU 5, 24 h.
A short description of data set [17]: Selectivity index, ratio of IC50 for African green monkey Vero cells to IC50 for Trypanosoma cruzi MHOM/Pe/2011/Arequipa DTU 5 amastigotes infected in African green monkey Vero cells. Particulars: read-out: Ratio IC50. The data set is classed as toxicity.
A short description of data set [18]: Selectivity index, ratio of IC50 for African green monkey Vero cells to IC50 for Trypanosoma cruzi MHOM/Pe/2011/Arequipa DTU 5 trypomastigotes derived from infected Balb/c albino mouse. The data set is classed as toxicity. Particulars: read-out: Ratio IC50.

On to `NCCN(CCN)CCNCc1ccc2ccccc2c1`, for which the selectivity ratio was determined as 14.8 in data set [1]; 4.8 in data set [6]; 25.4 in data set [7]; 11 in data set [8]; 10.6 in [11]; 7.7 in data set [13]. The selectivity ratio in data set [14] was 9.6. The IC50 in the data set on Trypanosoma cruzi [2] was 13.6 µM; with Trypanosoma cruzi [3], 26.4 µM; in the data set with Trypanosoma cruzi [4], 19 µM; in the data set on Trypanosoma cruzi [5] it was 18.4 µM; in the data set with Trypanosoma cruzi [9], 42.5 µM; in the data set with Trypanosoma cruzi [10], 21.1 µM. Also, the IC50 in the data set with Trypanosoma cruzi [12] was 8 µM; in the data set on Vero, 202 µM.

On to `NCCN(CCN)CCNCc1c2ccccc2cc2ccccc12`, for which the IC50 stood at 54.7 µM in the data set on Trypanosoma cruzi [2], 29.6 µM with Trypanosoma cruzi [9], 16.2 µM in the data set with Trypanosoma cruzi [12] and 20.5 µM with Vero.

As to `c1ccc2c(CNCCN(CCNCc3ccnc4ccccc34)CCNCc3ccnc4ccccc34)ccnc2c1`, the IC50 was 20.1 µM in the data set on Trypanosoma cruzi [15]; 23.5 µM in the data set with Trypanosoma cruzi [2]; 14.3 µM in the data set with Trypanosoma cruzi [16]; 11.9 µM with Trypanosoma cruzi [9]; 25.1 µM with Trypanosoma cruzi [12]; 199 µM in the data set on Vero. Besides, the selectivity ratio was 8.5 in [1]; 16.7 in [6]; 7.9 in data set [7]; 9.9 in data set [17]; 13.9 in [18].

Turning to `NCCN(CCN)CCNCc1ccc2ccc3cccc4ccc1c2c34`, the IC50 in the data set with Trypanosoma cruzi [2] was 21.9 µM; in the data set with Trypanosoma cruzi [9], 22.7 µM; in the data set with Trypanosoma cruzi [12] it was 71 µM; in the data set with Vero it was 33.4 µM.

`c1ccc2cc(CNCCN(CCNCc3ccc4ccccc4c3)CCNCc3ccc4[nH]ncc4c3)ccc2c1`: the IC50 in the data set with Trypanosoma cruzi [2] is 14.7 µM; in the data set on Trypanosoma cruzi [9], 24 µM; in the data set with Trypanosoma cruzi [12], 15.8 µM; in the data set with Vero, 22.3 µM.

Consider `CN(C)c1cccc2c(S(=O)(=O)NCCN(CCN)CCN)cccc12`, for which the IC50 in the data set with Trypanosoma cruzi [2] is 87.4 µM; with Trypanosoma cruzi [9] it was 65.9 µM; in the data set on Trypanosoma cruzi [12], 101 µM; in the data set on Vero, 137 µM.

For `c1ccc(-c2n[nH]cc2CNCCN(CCNCc2c[nH]nc2-c2ccccc2)CCNCc2c[nH]nc2-c2ccccc2)cc1`, the IC50 in the data set with Trypanosoma cruzi [2] was determined as 88.2 µM; in the data set on Trypanosoma cruzi [9], 72.4 µM; with Trypanosoma cruzi [12], 186 µM; with Vero, 678 µM.

In the case of `NCCCNCCN(CCNCCCN)CCNCCCN`, the IC50 in the data set with Trypanosoma cruzi [2] came to 202 µM; in the data set with Trypanosoma cruzi [9], 128 µM; with Trypanosoma cruzi [12], 124 µM; with Vero, 1180 µM.

The record behind these values is ChEMBL document CHEMBL4411300 (Eur J Med Chem, 2019).
